Measurements: PubChem BioAssay AID330 (DTP/NCI, 2004)
Values joined by “and” are separate entries in the source; they are usually repeats but may differ in a detail not shown here. Equal entries are not always repeated. Inconclusive results and toxic doses are left out. The calls were made as follows: active = survival T/C of 150% or more; inactive = T/C below 125% in these data.

System: P388 leukemia ip, CD2F1 mice, survival T/C
Assay: NCI In Vivo Anticancer Drug Screen. Data for tumor model P388 Leukemia (intraperitoneal) in CD2F1 (CDF1) mice
Conditions: endpoint: median survival time, higher = longer survival
Summary of the method: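 Mice carrying the transplanted tumor received test compound or vehicle. Survival was recorded in each group, and the value is the treated-group measurement divided by that of the vehicle-treated control group.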

[1] = dose: 60.0 mg/kg/injection, schedule: Q01DX005 (ip), vehicle: saline
[2] = dose: 120.0 mg/kg/injection, schedule: Q01DX005 (ip), vehicle: saline
[3] = dose: 50.0 mg/kg/injection, schedule: Q01DX009 (ip), vehicle: saline
[4] = dose: 100.0 mg/kg/injection, schedule: Q01DX009 (ip), vehicle: saline
[5] = dose: 200.0 mg/kg/injection, schedule: Q01DX009 (ip), vehicle: saline
[6] = dose: 400.0 mg/kg/injection, schedule: Q01DX009 (ip), vehicle: saline
[7] = dose: 60.0 mg/kg/injection, schedule: Q01DX005 (ip), vehicle: saline with Tween-80
[8] = dose: 120.0 mg/kg/injection, schedule: Q01DX005 (ip), vehicle: saline with Tween-80
[9] = dose: 240.0 mg/kg/injection, schedule: Q01DX005 (ip), vehicle: saline with Tween-80
[10] = dose: 100.0 mg/kg/injection, schedule: Q04DX003 (ip), vehicle: Klucel (hydroxypropylcellulose) (HPC)
[11] = dose: 25.0 mg/kg/injection, schedule: Q01DX009 (ip), vehicle: saline with Tween-80
[12] = dose: 50.0 mg/kg/injection, schedule: Q01DX009 (ip), vehicle: saline with Tween-80
[13] = dose: 100.0 mg/kg/injection, schedule: Q01DX009 (ip), vehicle: saline with Tween-80

Measured: T/C

O=P(CCP(=O)(c1ccccc1)c1ccccc1)(c1ccccc1)c1ccccc1.[Cl][Sn]([Cl])([c]1ccccc1)[c]1ccccc1
inactive: dose: 0.79 mg/kg/injection, schedule: Q01DX005 (ip), vehicle: Klucel (hydroxypropylcellulose) (HPC) 116 % of control and 117 % of control | dose: 1.56 mg/kg/injection, schedule: Q01DX005 (ip), vehicle: Klucel (hydroxypropylcellulose) (HPC) 114 % of control and 119 % of control | dose: 3.12 mg/kg/injection, schedule: Q01DX005 (ip), vehicle: Klucel (hydroxypropylcellulose) (HPC) 111 % of control and 119 % of control | dose: 6.25 mg/kg/injection, schedule: Q01DX005 (ip), vehicle: Klucel (hydroxypropylcellulose) (HPC) 113 % of control

CC(=O)CCC1C=CC(=O)O1 (configuration not stated)
inactive: [1] 112 % of control | [2] 103 % of control | dose: 240.0 mg/kg/injection, schedule: Q01DX005 (ip), vehicle: saline 111 % of control

CNS(=O)(=O)Cc1ccccc1
inactive: [3] 107 % of control | [4] 107 % of control | [5] 100 % of control | [6] 108 % of control

NC(CCC(=O)NC(CS)C(=O)NCC(=O)O)C(=O)O (configuration not stated)
inactive: dose: 25.0 mg/kg/injection, schedule: Q01DX005 (ip), vehicle: saline 102 % of control | dose: 50.0 mg/kg/injection, schedule: Q01DX005 (ip), vehicle: saline 104 % of control and 108 % of control | dose: 100.0 mg/kg/injection, schedule: Q01DX005 (ip), vehicle: saline 98 % of control and 94 % of control | dose: 200.0 mg/kg/injection, schedule: Q01DX005 (ip), vehicle: saline 102 % of control | dose: 400.0 mg/kg/injection, schedule: Q01DX005 (ip), vehicle: saline 93 % of control

CC(=NC1CCCCC1)c1c(O)oc(C=Nc2ccccc2)c1O
inactive: dose: 50.0 mg/kg/injection, schedule: Q01DX005 (ip), vehicle: saline with Tween-80 100 % of control | dose: 100.0 mg/kg/injection, schedule: Q01DX005 (ip), vehicle: saline with Tween-80 105 % of control | dose: 200.0 mg/kg/injection, schedule: Q01DX005 (ip), vehicle: saline with Tween-80 100 % of control

C=CC(=O)NCCCCC(N)C(=O)O (configuration not stated)
inactive: [3] 100 % of control | [4] 100 % of control | [5] 97 % of control

O=C(Nc1ccc(Cl)cc1C(F)(F)F)OCCCc1ccncc1
inactive: [3] 98 % of control | [4] 91 % of control | [5] 91 % of control

CC(C)(C)SC(=S)SCC(=O)c1ccc(F)cc1
inactive: [7] 102 % of control | [8] 103 % of control | [9] 102 % of control

CN1CCN(c2cc3nc[nH]c(=O)c3cc2[N+](=O)[O-])CC1
inactive: dose: 50.0 mg/kg/injection, schedule: Q04DX003 (ip), vehicle: Klucel (hydroxypropylcellulose) (HPC) 99 % of control | [10] 104 % of control

CCCCOc1cc(N)nc2ccccc12
inactive: dose: 12.5 mg/kg/injection, schedule: Q04DX002 (ip), vehicle: saline with Tween-80 95 % of control | dose: 25.0 mg/kg/injection, schedule: Q04DX002 (ip), vehicle: saline with Tween-80 100 % of control | dose: 50.0 mg/kg/injection, schedule: Q04DX002 (ip), vehicle: saline with Tween-80 99 % of control

O=c1ccc2nc3ccccc3sc-2c1
inactive: dose: 12.5 mg/kg/injection, schedule: Q01DX009 (ip), vehicle: saline with Tween-80 90 % of control | [11] 104 % of control | [12] 109 % of control

c1ccc2nc(-c3cc4ccccc4s3)ccc2c1
inactive: [13] 100 % of control and 104 % of control | dose: 100.0 mg/kg/injection, schedule: Q04DX003 (ip), vehicle: saline with Tween-80 90 % of control | dose: 200.0 mg/kg/injection, schedule: Q01DX009 (ip), vehicle: saline with Tween-80 100 % of control and 90 % of control | dose: 200.0 mg/kg/injection, schedule: Q04DX003 (ip), vehicle: saline with Tween-80 90 % of control | dose: 400.0 mg/kg/injection, schedule: Q01DX009 (ip), vehicle: saline with Tween-80 109 % of control and 95 % of control | dose: 400.0 mg/kg/injection, schedule: Q04DX003 (ip), vehicle: saline with Tween-80 90 % of control

Nc1nc(-c2ccncc2)cc(-c2cc(-c3ccncc3)nc(N)n2)n1
inactive: [1] 102 % of control | [2] 96 % of control

CC(C)(C)SC(=S)SCC(=O)c1ccc(Cl)cc1
inactive: [7] 99 % of control | [8] 98 % of control | [9] 100 % of control

O=C1C=C2CCCCCCCCC(C1)C2 (configuration not stated)
inactive: dose: 50.0 mg/kg/injection, schedule: Q01DX005 (ip), vehicle: Klucel (hydroxypropylcellulose) (HPC) 99 % of control | dose: 100.0 mg/kg/injection, schedule: Q01DX005 (ip), vehicle: Klucel (hydroxypropylcellulose) (HPC) 96 % of control | dose: 200.0 mg/kg/injection, schedule: Q01DX005 (ip), vehicle: Klucel (hydroxypropylcellulose) (HPC) 89 % of control

O=C1CCCC2C3CC(CN12)C1CCCCN1C3 (configuration not stated)
inactive: [11] 100 % of control | [12] 120 % of control | [13] 105 % of control

O=S(=O)(O)N(O)c1ccccc1
inactive: dose: 25.0 mg/kg/injection, schedule: Q01DX001 (ip), vehicle: saline 103 % of control and 97 % of control | dose: 50.0 mg/kg/injection, schedule: Q01DX001 (ip), vehicle: saline 113 % of control and 95 % of control | dose: 100.0 mg/kg/injection, schedule: Q01DX001 (ip), vehicle: saline 106 % of control and 124 % of control | dose: 200.0 mg/kg/injection, schedule: Q01DX001 (ip), vehicle: saline 94 % of control

COc1ccc(C2COc3cc4c(cc3C2)OCO4)cc1 (configuration not stated)
inactive: [7] 98 % of control | [8] 98 % of control | [9] 96 % of control

CCCCn1c2nc(=O)[nH]c(=O)c-2[n+]([O-])c2ccccc21
inactive: dose: 25.0 mg/kg/injection, schedule: Q01DX001 (ip), vehicle: saline with Tween-80 102 % of control | dose: 50.0 mg/kg/injection, schedule: Q01DX001 (ip), vehicle: saline with Tween-80 102 % of control

O=C(O)c1cc([N+](=O)[O-])ccc1Nc1ccccc1
inactive: dose: 6.25 mg/kg/injection, schedule: Q01DX009 (ip), vehicle: suspension in saline 108 % of control and 90 % of control | dose: 12.5 mg/kg/injection, schedule: Q01DX009 (ip), vehicle: suspension in saline 104 % of control | dose: 25.0 mg/kg/injection, schedule: Q01DX009 (ip), vehicle: suspension in saline 100 % of control and 90 % of control | dose: 50.0 mg/kg/injection, schedule: Q01DX009 (ip), vehicle: suspension in saline 111 % of control and 91 % of control

CCOc1ccc(N=Nc2ccc(N)cc2N)cc1
inactive: dose: 100.0 mg/kg/injection, schedule: Q01DX009 (ip), vehicle: Klucel (hydroxypropylcellulose) (HPC) 118 % of control | dose: 200.0 mg/kg/injection, schedule: Q01DX009 (ip), vehicle: Klucel (hydroxypropylcellulose) (HPC) 100 % of control | dose: 400.0 mg/kg/injection, schedule: Q01DX009 (ip), vehicle: Klucel (hydroxypropylcellulose) (HPC) 93 % of control

CCOC(=O)C(CSC(c1ccccc1)(c1ccccc1)c1ccccc1)NC(=O)c1csc(CCNC(=O)c2ccccc2)n1 (configuration not stated)
inactive: dose: 4.0 mg/kg/injection, schedule: Q01DX009 (ip), vehicle: other 100 % of control | dose: 8.0 mg/kg/injection, schedule: Q01DX009 (ip), vehicle: other 99 % of control | dose: 16.0 mg/kg/injection, schedule: Q01DX009 (ip), vehicle: other 91 % of control | dose: 32.0 mg/kg/injection, schedule: Q01DX009 (ip), vehicle: other 89 % of control | dose: 62.5 mg/kg/injection, schedule: Q01DX009 (ip), vehicle: other 113 % of control | dose: 64.0 mg/kg/injection, schedule: Q01DX009 (ip), vehicle: other 89 % of control | dose: 125.0 mg/kg/injection, schedule: Q01DX009 (ip), vehicle: other 108 % of control | dose: 250.0 mg/kg/injection, schedule: Q01DX009 (ip), vehicle: other 108 % of control

Cn1c2ccccc2c2nnc(N/N=C/c3ccc(Cl)cc3)nc21
inactive: dose: 100.0 mg/kg/injection, schedule: Q04DX002 (ip), vehicle: saline with Tween-80 88 % of control | dose: 200.0 mg/kg/injection, schedule: Q04DX002 (ip), vehicle: saline with Tween-80 87 % of control | dose: 400.0 mg/kg/injection, schedule: Q04DX002 (ip), vehicle: saline with Tween-80 98 % of control

CCOP(O)(=S)OCC.[Yb]
inactive: [10] 96 % of control | dose: 200.0 mg/kg/injection, schedule: Q04DX003 (ip), vehicle: Klucel (hydroxypropylcellulose) (HPC) 99 % of control | dose: 400.0 mg/kg/injection, schedule: Q04DX003 (ip), vehicle: Klucel (hydroxypropylcellulose) (HPC) 90 % of control

Cc1ccc(N)c(O)c1
inactive: [4] 102 % of control and 105 % of control | [5] 100 % of control and 103 % of control | [6] 101 % of control and 113 % of control | dose: 600.0 mg/kg/injection, schedule: Q01DX009 (ip), vehicle: saline 115 % of control
